We go through 3 compounds from ChEMBL document CHEMBL1152593, “Furanocoumarins: novel topoisomerase I inhibitors from Ruta graveolens L” (Bioorg Med Chem, 2009).

Broadly, the inhibition is the change of the read-out against control, counted positive when it falls. By IC50 is commonly meant the concentration that inhibits the measured activity by half.

The species named for assay [1] is Bos taurus. The assay is described as follows: Inhibition of calf thymus DNA topoisomerase 1 assessed as pUC19 DNA relaxation at 40 uM by gel electrophoresis.
The species entered for assay [2] is Bos taurus. The assay is described as follows: (§1) Inhibition of calf thymus DNA topoisomerase 1 assessed as pUC19 DNA relaxation by gel electrophoresis.
Assay [3] can be described thus: as §1. On the set-up: species or system Bos taurus.
The species named for assay [4] is Bos taurus. As to the kind of experiment: Inhibition of calf thymus DNA topoisomerase 1 assessed as pUC19 DNA relaxation at 20 uM by gel electrophoresis.
Assay [5] is filed under the species Bos taurus. The assay is described as follows: Inhibition of calf thymus DNA topoisomerase 1 assessed as pUC19 DNA relaxation at 10 uM by gel electrophoresis.

The source made the active and inactive calls. The calls are words filed in the database; no cut-off is given here.

Regarding `COc1c2occc2cc2ccc(=O)oc12` [METHOXSALEN], the inhibition entry in assay [1] is “Active”. In addition, the inhibition result in assay [2] is “Dose-dependent effect”. Besides, the IC50 in assay [3] is 28 µM.

For the compound `O=c1ccc2cc3ccoc3cc2o1` [PSORALEN], the inhibition in assay [4] was 100%; in assay [2] it was “Dose-dependent effect”. Also, the inhibition result in assay [5] is “inactive”. Besides, the IC50 in assay [3] is 11 µM.

`COc1c2ccoc2cc2oc(=O)ccc12` [BERGAPTEN]: in assay [5], the result was Active. Moreover, the inhibition entry in assay [2] is “Dose-dependent effect”. Besides, the IC50 in assay [3] worked out at 6.5 µM.
